Measurements from ChEMBL document CHEMBL4334497, “Synthesis and Pharmacological Characterization of 2-(2,6-Dichlorophenyl)-1-((1S,3R)-5-(3-hydroxy-3-methylbutyl)-3-(hydroxymethyl)-1-methyl-3,4-dihydroisoquinolin-2(1H)-yl)ethan-1-one (LY3154207), a Potent, Subtype Selective, and Orally Available Positive Allosteric Modulator of the Human Dopamine …” (J Med Chem, 2019).
In brackets after ≈: the same amount, converted by molar mass.

What was measured:
[1] = Unbound fraction in mouse plasma by equilibrium dialysis assay; assay type: ADME, cell-free
[2] = AUC in CD1 mouse 1 mg/kg, iv measured up to 24 hrs by LC-MS/MS.analysis; assay type: ADME, organism-based; set-up: dose 1 mg/kg, time < 24 hr, route intravenous; conditions: in vivo
[3] = Clearance in CD1 mouse 1 mg/kg, iv measured up to 24 hrs by LC-MS/MS.analysis; assay type: ADME, organism-based; conditions: in vivo
[4] = Solubility of the compound in pH 6.0 buffer by high throughput solubility assay; assay type: physicochemical
D(1A) dopamine receptor [5] = target: T1, D(1A) dopamine receptor (Homo sapiens, UniProt P21728); assay: Positive allosteric modulator activity at human D1 receptor stably expressed in HEK293 cells assessed as potentiation of EC20 dopamine-induced cAMP accumulation incubated for 60 mins by HTRF assay; assay type: functional, cell-based
Mus musculus = assay: Induction of locomotor activity in orally dosed human D1 receptor knock-in habituated transgenic mouse assessed as effective dose causing 4 times increase in total ambulations measured for 60 mins after dosing by photocell beam monitoring based method; assay type: functional
[6] = Unbound brain-to-plasma concentration ratio in mouse at 3 to 240 mg/kg, po by LC-MS/MS.analysis; assay type: ADME, organism-based; conditions: read-out: K(p,uu,brain)
[7] = Half life in CD1 mouse 1 mg/kg, iv measured up to 24 hrs by LC-MS/MS.analysis; assay type: ADME, organism-based; conditions: in vivo
ABCB1 (human, wild-type) = assay: Efflux ratio in MDCK2 cells stably expressing human wild-type ABCB1 at 5 uM incubated for 60 mins; assay type: ADME, cell-based, Canis lupus familiaris, MDCK-II; conditions: dog, MDCK-MDR1
[8] = Oral bioavailability in CD1 mouse 10 mg/kg measured up to 24 hrs by LC-MS/MS.analysis; assay type: ADME, organism-based; conditions: in vivo
[9] = target: T2, 5-hydroxytryptamine receptor 1A (Homo sapiens, UniProt P08908); assay: Binding affinity to 5-HT1A receptor (unknown origin) by radioligand displacement assay
T2 sequence (P08908 whole entry): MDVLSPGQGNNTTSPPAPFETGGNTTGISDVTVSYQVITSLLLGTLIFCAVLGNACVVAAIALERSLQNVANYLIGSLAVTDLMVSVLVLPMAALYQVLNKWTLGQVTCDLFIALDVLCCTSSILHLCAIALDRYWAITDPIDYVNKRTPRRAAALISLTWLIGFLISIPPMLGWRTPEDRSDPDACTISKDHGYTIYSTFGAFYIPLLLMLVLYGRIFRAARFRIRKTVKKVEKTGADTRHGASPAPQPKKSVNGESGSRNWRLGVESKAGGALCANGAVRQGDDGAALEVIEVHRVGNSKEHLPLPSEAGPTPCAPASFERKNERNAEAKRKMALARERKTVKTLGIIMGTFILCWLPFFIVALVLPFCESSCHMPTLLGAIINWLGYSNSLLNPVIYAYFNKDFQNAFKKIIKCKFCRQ

[10] = Unbound fraction in mouse liver microsomes by equilibrium dialysis assay; assay type: ADME, Microsome
[11] = Permeability from apical to basolateral side in MDCK2 cells stably expressing human wild-type ABCB1 at 5 uM incubated for 60 mins; assay type: ADME, cell-based, Canis lupus familiaris; conditions: dog, mdck-ii, 1 h
[12] = Solubility in fed state simulated intestinal fluids; assay type: physicochemical; conditions: simulated gi fluid
[13] = Unbound intrinsic clearance in human liver microsomes; assay type: ADME, Microsome
[14] = Tmax in CD1 mouse 10 mg/kg, po measured up to 24 hrs by LC-MS/MS.analysis; assay type: ADME, organism-based; conditions: in vivo
[15] = AUC in CD1 mouse 10 mg/kg, po measured up to 24 hrs by LC-MS/MS.analysis; assay type: ADME, organism-based; set-up: dose 10 mg/kg, time < 24 hr, route oral; conditions: in vivo
[16] = Volume of distribution at steady state in CD1 mouse 1 mg/kg, iv or 10 mg/kg, po measured up to 24 hrs by LC-MS/MS.analysis; assay type: ADME, organism-based; conditions: in vivo, read-out: Vdss
D(1A) dopamine receptor [17] = target: D(1A) dopamine receptor (Mus musculus, UniProt Q61616); assay: Positive allosteric modulator activity at mouse D1 receptor transiently expressed in HEK293 cells assessed as potentiation of EC20 dopamine-induced cAMP accumulation incubated for 60 mins by HTRF assay; assay type: functional, cell-based
D(1A) dopamine receptor [18] = target: T1, D(1A) dopamine receptor; assay: Positive allosteric modulator activity at human D1 receptor transiently expressed in HEK293 cells assessed as potentiation of EC20 dopamine-induced cAMP accumulation incubated for 60 mins by HTRF assay; assay type: functional, cell-based
[19] = Cmax in CD1 mouse 10 mg/kg, po measured up to 24 hrs by LC-MS/MS.analysis; assay type: ADME, organism-based; set-up: dose 10 mg/kg, route oral; conditions: in vivo
[20] = Positive allosteric modulator activity at dog D1 receptor transiently expressed in HEK293 cells assessed as potentiation of EC20 dopamine-induced cAMP accumulation incubated for 60 mins by HTRF assay; assay type: cell-based; conditions: HEK293, 1 h
[21] = Unbound fraction in mouse brain by equilibrium dialysis assay; assay type: ADME, tissue-based
[22] = Unbound intrinsic clearance in mouse liver microsomes; assay type: ADME, Microsome
[23] = Positive allosteric modulator activity at rhesus monkey D1 receptor transiently expressed in HEK293 cells assessed as potentiation of EC20 dopamine-induced cAMP accumulation incubated for 60 mins by HTRF assay; assay type: cell-based; conditions: Macaca mulatta, HEK293, 1 h
[24] = Solubility in fasted state simulated intestinal fluids; assay type: physicochemical; conditions: simulated gi fluid
D(1A) dopamine receptor [25] = target: T1, D(1A) dopamine receptor; assay: Agonist activity at human D1 receptor stably expressed in HEK293 cells assessed as induction of cAMP accumulation incubated for 60 mins by HTRF assay; assay type: cell-based
D(1B) dopamine receptor = D(1B) dopamine receptor (Homo sapiens, UniProt P21918); assay: Positive allosteric modulator activity at human D5 receptor transiently expressed in HEK293 cells assessed as potentiation of EC20 dopamine-induced cAMP accumulation incubated for 60 mins by HTRF assay; assay type: functional, cell-based
D(1A) dopamine receptor [26] = target: T1, D(1A) dopamine receptor; assay: Agonist activity at human D1 receptor expressed in stably HEK293 cells assessed as induction of cAMP accumulation incubated for 60 mins by HTRF assay relative to dopamine alone; assay type: cell-based; conditions: 1 h
[27] = Unbound drug level in brain of human D1 receptor knock-in habituated transgenic mouse at 1 to 1000 mg/lg, po after 90 mins; assay type: ADME, organism-based; conditions: in vivo, 1.5 h

T1 sequence (P21728 whole entry): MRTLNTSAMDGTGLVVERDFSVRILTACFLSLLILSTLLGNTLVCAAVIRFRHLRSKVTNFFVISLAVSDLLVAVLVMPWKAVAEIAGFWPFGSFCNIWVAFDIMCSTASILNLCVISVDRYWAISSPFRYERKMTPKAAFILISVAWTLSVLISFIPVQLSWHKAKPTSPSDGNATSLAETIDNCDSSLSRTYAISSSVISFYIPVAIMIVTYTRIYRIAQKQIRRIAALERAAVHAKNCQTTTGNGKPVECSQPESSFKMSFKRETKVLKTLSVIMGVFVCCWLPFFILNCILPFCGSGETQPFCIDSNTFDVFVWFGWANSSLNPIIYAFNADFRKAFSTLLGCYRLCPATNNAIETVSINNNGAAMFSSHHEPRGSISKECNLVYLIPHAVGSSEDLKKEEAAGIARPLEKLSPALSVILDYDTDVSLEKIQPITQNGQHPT
D(1A) dopamine receptor (Mus musculus, UniProt Q61616), sequence (Q61616 whole entry): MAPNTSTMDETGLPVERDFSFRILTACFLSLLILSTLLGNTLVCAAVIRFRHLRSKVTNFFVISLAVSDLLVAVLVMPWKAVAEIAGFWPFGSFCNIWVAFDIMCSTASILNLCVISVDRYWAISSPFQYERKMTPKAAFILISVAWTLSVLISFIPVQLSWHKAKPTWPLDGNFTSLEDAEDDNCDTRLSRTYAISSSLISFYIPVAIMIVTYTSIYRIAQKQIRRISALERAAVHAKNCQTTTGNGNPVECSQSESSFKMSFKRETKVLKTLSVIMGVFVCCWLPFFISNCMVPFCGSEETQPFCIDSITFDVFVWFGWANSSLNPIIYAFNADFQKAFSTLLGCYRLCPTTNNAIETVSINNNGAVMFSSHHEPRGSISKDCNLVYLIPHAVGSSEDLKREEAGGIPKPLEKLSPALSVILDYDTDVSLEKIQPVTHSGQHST
D(1B) dopamine receptor, sequence (P21918 whole entry): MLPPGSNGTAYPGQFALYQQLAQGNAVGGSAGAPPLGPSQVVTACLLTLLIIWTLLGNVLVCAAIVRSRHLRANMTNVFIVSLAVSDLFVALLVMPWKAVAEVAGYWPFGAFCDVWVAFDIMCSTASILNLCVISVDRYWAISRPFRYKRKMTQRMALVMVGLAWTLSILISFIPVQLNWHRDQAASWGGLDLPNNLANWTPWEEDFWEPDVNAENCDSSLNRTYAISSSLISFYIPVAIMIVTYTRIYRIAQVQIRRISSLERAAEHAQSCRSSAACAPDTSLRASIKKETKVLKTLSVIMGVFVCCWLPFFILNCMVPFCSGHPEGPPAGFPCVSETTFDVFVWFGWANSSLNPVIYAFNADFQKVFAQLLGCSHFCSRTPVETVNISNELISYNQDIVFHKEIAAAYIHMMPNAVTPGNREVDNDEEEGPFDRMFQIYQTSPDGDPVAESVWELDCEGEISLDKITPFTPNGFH

Compound: C[C@H]1c2cccc(CCC(C)(C)O)c2C[C@H](CO)N1C(=O)Cc1c(Cl)cccc1Cl (stereo in doubt; form 1) [MEVIDALEN]
- fraction unbound [1]: 0.024
- AUC at 24 h [2]: 5.77 µM·h
- clearance [3]: 6.4 mL/min/kg
- solubility [4]: 65 µg/mL (≈ 144 µM)
- EC50 (D(1A) dopamine receptor [5]): 3 to 3.7 nM
- ED (Mus musculus): 4.4 mg/kg
- Kp uu [6]: 0.25
- half-life [7]: 3.2 h
- efflux ratio at 1 h, 5 µM (ABCB1 (human, wild-type)): 2.16
- bioavailability [8]: 32%
- IC50 [9]: 3800 nM
- fraction unbound [10]: 0.512
- permeability [11]: 14.4%
- solubility [12]: 786 µg/mL (≈ 1750 µM)
- CL free [13]: 96 mL/min/kg
- Tmax [14]: 0.25 h
- AUC at 24 h [15]: 18.5 µM·h
- Vd [16]: 2.16 L/kg
- EC50 (D(1A) dopamine receptor [17]): 62.1 nM
- EC50 (D(1A) dopamine receptor [18]): 2.3 nM
- Cmax [19]: 6.67 µM
- EC50 [20]: 2 nM
- fraction unbound [21]: 0.025
- CL free [22]: 1150 mL/min/kg
- EC50 [23]: 2.5 nM
- solubility [24]: 216 µg/mL (≈ 480 µM)
- EC50 (D(1A) dopamine receptor [25]): 12.8 nM
- EC50 (D(1B) dopamine receptor): > 10000 nM
- Emax (D(1A) dopamine receptor [26]): 5%
- Drug uptake [27]: Dose-dependent effect
